Where a name gives a salt, the structure may show the parent alone.
Columns and labels:
PanK3 [1] = molecular target: T1, PanK3 (Homo sapiens, UniProt Q9H999); assay: PanK3 high-throughput screen, two-step luminescence; format: biochemical
PanK3 [2] = molecular target: T1, PanK3; assay: PanK3 radiochemical; format: biochemical; details: for % Activation RA: % of maximal activation of PanK3 with respect to the DMSO control; for % Activation RA / PanK3 inhibition (in words): radioactive assay; for EC50 (µM), RA: radiochemical PanK3 assay; for PanK3 inhibition by steroids: radiochemical assay, 100 µM compound; for PanK3 inhibition (in words): increasing concentrations of compound
[3] = HTS platform, 10-point concentration series in triplicate, rounded to nearest 0.1 µM

T1 sequence (Q9H999 whole entry): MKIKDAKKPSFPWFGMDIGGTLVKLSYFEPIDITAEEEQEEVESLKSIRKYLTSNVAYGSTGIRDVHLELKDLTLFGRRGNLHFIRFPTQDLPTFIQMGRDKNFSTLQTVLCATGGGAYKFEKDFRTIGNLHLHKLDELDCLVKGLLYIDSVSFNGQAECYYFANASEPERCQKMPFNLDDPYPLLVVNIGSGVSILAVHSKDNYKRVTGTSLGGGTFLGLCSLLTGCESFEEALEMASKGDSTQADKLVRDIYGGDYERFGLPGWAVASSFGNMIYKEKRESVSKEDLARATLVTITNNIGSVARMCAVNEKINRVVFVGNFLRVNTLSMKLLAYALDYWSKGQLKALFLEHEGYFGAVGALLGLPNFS

Compound: N=C(N)SCCc1ccc(CCSC(=N)N)cc1 [1,4-PBIT dihydrobromide]
- IC50 (PanK3 [1]; [3]): 0.4 µM

Compound: O=C1C=CC(=O)c2ccccc21 [1,4-naphtoquinone]
- % Activation RA (PanK3 [2]): 0%
- EC50 (µM), RA (PanK3 [2]): Inactive

Compound: CC1(C)[C@@H](O)CC[C@]2(C)[C@H]3C(=O)C=C4[C@H]5C[C@@](C)(C(=O)O)CC[C@]5(C)CC[C@@]4(C)[C@]3(C)CC[C@@H]12 [18α-glycyrrhetinic acid]
- IC50 (PanK3 [1]): 3.6 µM

Compound: Nc1ncnc2c1ncn2[C@@H]1O[C@H](COP(=O)(O)OP(=O)(O)O)[C@@H](O)[C@H]1O [ADP]
- Kinetic mechanism of PanK3 inhibition with respect to ATP (PanK3 [2]): competitive inhibitor

Compound: O=C1C(Cl)=C(Cl)C(=O)C(Cl)=C1Cl [Chloranil]
- IC50 (PanK3 [1]): 5.9 µM

Compound: C[C@]12CC[C@H](OS(=O)(=O)O)CC1=CC[C@@H]1[C@@H]2CC[C@]2(C)C(=O)CC[C@@H]12 [Dehydroisoandrosterone sulfate]
- PanK3 inhibition by steroids (PanK3 [2]): inhibited the enzyme more potently than their non-sulfated versions

Compound: C[C@]12CC[C@H](O)CC1=CC[C@@H]1[C@@H]2CC[C@]2(C)C(=O)CC[C@@H]12 [Dehydroisoandrosterone]
- PanK3 inhibition by steroids (PanK3 [2]): decreased the enzyme activity

Compound: CN[C@@H](C)[C@H](O)c1ccccc1 [Ephedrine hydrochloride]
- IC50 (PanK3 [1]): 1.6 µM

Compound: CC(=O)O[C@H]1C[C@@]2(C)[C@@H](C[C@@H](O)[C@H]3[C@@]4(C)CC[C@@H](O)[C@@H](C)[C@@H]4CC[C@@]32C)/C1=C(\CCC=C(C)C)C(=O)O [Fusidic acid]
- IC50 (PanK3 [1]): 0.1 µM

Compound: CN(CCOc1ccc(C[C@H](Nc2ccccc2C(=O)c2ccccc2)C(=O)O)cc1)c1ccccn1 [GW1929]
- PanK3 inhibition (in words) (PanK3 [2]): either had no effect or very weak activity

Compound: O=C1Nc2ccc(I)cc2/C1=C/c1cc(Br)c(O)c(Br)c1 [GW5074]
- IC50 (PanK3 [1]; [3]): 9.2 µM

Compound: O=C(Nc1ccccc1)c1cc([N+](=O)[O-])ccc1Cl [GW9662]
- PanK3 inhibition (in words) (PanK3 [2]): either had no effect or very weak activity

Compound: Cc1cc(SCc2sc(-c3ccc(C(F)(F)F)cc3)nc2C)ccc1OCC(=O)O [GW501516]
- IC50 (PanK3 [2]): ~100 µM

Compound: Oc1c(Cl)cc(Cl)c(Cl)c1Cc1c(O)c(Cl)cc(Cl)c1Cl [Hexachlorophene]
- IC50 (PanK3 [1]): 8.8 µM

Compound: CCCCCCCCCCCCCCCC(=O)OC(CC(=O)[O-])C[N+](C)(C)C (stereo not shown) [Palmitoyl-carnitine]
- EC50 (PanK3 [2]): 1.6 µM
- % Activation RA (PanK3 [2]): 120%

Compound: CCc1ccc(CCOc2ccc(CC3SC(=O)NC3=O)cc2)nc1 (stereo not shown) [Pioglitazone hydrochloride]
- IC50 (PanK3 [1]): 1 µM

Compound: CC(=O)[C@H]1CC[C@H]2[C@@H]3CC=C4C[C@@H](O)CC[C@]4(C)[C@H]3CC[C@]12C [Pregnenolone]
- PanK3 inhibition by steroids (PanK3 [2]): weak PanK3 inhibitors

Compound: O=C(c1cc(O)c(O)c([N+](=O)[O-])c1)c1ccccc1F [Ro 41-0960]
- IC50 (PanK3 [1]; [3]): 3.9 µM

Compound: CCCCNC(=O)NS(=O)(=O)c1ccc(C)cc1 [Tolbutamide]
- PanK3 inhibition (in words) (PanK3 [2]): ineffective

Compound: Cc1c(Cl)cccc1Nc1ccccc1C(=O)O [Tolfenamic acid]
- IC50 (PanK3 [1]): 9.2 µM

Compound: N#C/C(=C\c1ccc(O)c(O)c1)C(=O)N1CCc2ccccc21 [Tyrphostin AG 528]
- IC50 (PanK3 [1]; [3]): 3 µM

Compound: C#C[C@]1(O)CC[C@H]2[C@@H]3CCC4=Cc5nc6nc7ccccc7n6cc5C[C@]4(C)[C@H]3CC[C@@]21C [WIN 62577]
- IC50 (PanK3 [1]; [3]): 0.7 µM

Compound: CC(C)CCC[C@@H](C)[C@H]1CC[C@H]2[C@@H]3CC=C4C[C@@H](O)CC[C@]4(C)[C@H]3CC[C@]12C [cholesterol]
- PanK3 inhibition by steroids (PanK3 [2]): weak PanK3 inhibitors

Compound: C[C@]12CC[C@@H]3c4ccc(OS(=O)(=O)O)cc4CC[C@H]3[C@@H]1CC[C@@H]2O [estradiol sulfate]
- PanK3 inhibition by steroids (PanK3 [2]): no effect

Compound: C[C@]12CC[C@@H]3c4ccc(OS(=O)(=O)O)cc4CC[C@H]3[C@@H]1CCC2=O [estrone sulfate]
- PanK3 inhibition by steroids (PanK3 [2]): inhibited the enzyme more potently than their non-sulfated versions

Compound: CC(C)[C@H]1CC[C@H](C(=O)N[C@H](Cc2ccccc2)C(=O)O)CC1 [nateglinide]
- IC50 (PanK3 [2]): > 100 µM

Compound: CCOc1cc(CC(=O)N[C@@H](CC(C)C)c2ccccc2N2CCCCC2)ccc1C(=O)O [repaglinade]
- IC50 (PanK3 [2]): > 100 µM

Compound: Phenylmercuric acid
- % Activation RA (PanK3 [2]): 0%
- EC50 (µM), RA (PanK3 [2]): Inactive

Reference: PMC2929395 (Chemistry & biology, 2010)
